According to patent US9695155B2, “Herbicidal substituted pyrimidinyloxy benzene compounds” (E. I. DU PONT DE NEMOURS AND COMPANY, priority 2013, dated 2017):

Assays:
barnyardgrass [1] = test: Test A preemergence; type: in vivo, Echinochloa crus-galli; conditions: 1000 g ai/ha, 0 to 100 scale, 0 no effect, 100 complete control, approx. 10 days
Outline: (§1)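 Visual 0–100 rating (100 = complete control) taken about 10 d post-treatment relative to untreated checks. Preemergence: directed soil spray on sown loam/sand pots. Postemergence: seedlings 2–10 cm, 1–2 leaf. Non-phytotoxic solvent formulation with surfactant.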

pigweed [2] = test: Test A preemergence; type: in vivo, Amaranthus retroflexus; conditions: 1000 g ai/ha, 0 to 100 scale, 0 no effect, 100 complete control, approx. 10 days
Outline: as §1

wheat [3] = test: Test A preemergence; type: in vivo, Triticum aestivum; conditions: 1000 g ai/ha, 0 to 100 scale, 0 no effect, 100 complete control, approx. 10 days
Outline: as §1

corn [4] = test: Test A preemergence; type: in vivo, Zea mays; conditions: 1000 g ai/ha, 0 to 100 scale, 0 no effect, 100 complete control, approx. 10 days
Outline: as §1

barnyardgrass [5] = test: Test A postemergence; type: in vivo, Echinochloa crus-galli; conditions: 1000 g ai/ha, 0 to 100 scale, 0 no effect, 100 complete control
Outline: as §1

giant foxtail = test: Test A postemergence; type: in vivo, Setaria faberii; conditions: 1000 g ai/ha, 0 to 100 scale, 0 no effect, 100 complete control
Outline: as §1

pigweed [6] = test: Test A postemergence; type: in vivo, Amaranthus retroflexus; conditions: 1000 g ai/ha, 0 to 100 scale, 0 no effect, 100 complete control
Outline: as §1

wheat [7] = test: Test A postemergence; type: in vivo, Triticum aestivum; conditions: 1000 g ai/ha, 0 to 100 scale, 0 no effect, 100 complete control
Outline: as §1

corn [8] = test: Test A postemergence; type: in vivo, Zea mays; conditions: 1000 g ai/ha, 0 to 100 scale, 0 no effect, 100 complete control
Outline: as §1

rice = test: Test B flooded paddy test; type: in vivo, Oryza sativa; conditions: Flood, 250 g ai/ha; 0 to 100 scale where 0 is no effect and 100 is complete control
Outline: (§2)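 Plants were grown to the 2-leaf stage, then pots were flooded to 3 cm above the soil and compounds were applied directly into the paddy water. That depth was held throughout, and after 13 to 15 days in the greenhouse injury was rated visually against controls on a 0–100 scale (0 no effect, 100 complete control).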

sedge, umbrella = test: Test B flooded paddy test; type: in vivo, Cyperus difformis; conditions: Flood, 250 g ai/ha; 0 to 100 scale where 0 is no effect and 100 is complete control
Outline: as §2

Heteranthera limosa = test: Test B flooded paddy test; type: in vivo; conditions: Flood, 250 g ai/ha; 0 to 100 scale where 0 is no effect and 100 is complete control
Outline: as §2

galium = test: Test C postemergence; type: in vivo, Galium aparine; conditions: for Plant response rating (0 to 100), Galium: 0 is no effect, 100 is complete control; for Galium plant response rating: 31 g ai/ha; for Galium plant response rating / Plant response rating, Galium: scale 0 to 100 (0 no effect, 100 complete control)
Outline: (§3)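 Preemergence: seeds sown in a loam soil–sand blend and sprayed with test chemical in a non-phytotoxic solvent mixture containing surfactant. Postemergence: plants at 2 to 18 cm (1- to 4-leaf stage) in peat-based medium, treated with the same formulation. Greenhouse 13 to 15 days, then visual rating 0 (no effect) to 100 (complete control).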

pigweed [9] = test: Test C postemergence; type: in vivo, Amaranthus retroflexus; conditions: for Plant response rating (0 to 100), Pigweed: 0 is no effect, 100 is complete control; for Pigweed plant response rating: 31 g ai/ha; for Pigweed plant response rating / Plant response rating, Pigweed: scale 0 to 100 (0 no effect, 100 complete control)
Outline: as §3

barnyardgrass [10] = test: Test C postemergence; type: in vivo, Echinochloa crus-galli; conditions: for Plant response rating (0 to 100), Barnyardgrass: 0 is no effect, 100 is complete control; for Barnyardgrass plant response rating: 31 g ai/ha, 13 to 15 days; for Barnyardgrass plant response rating / Plant response rating, Barnyardgrass: scale 0 to 100 (0 no effect, 100 complete control)
Outline: as §3

kochia = test: Test C postemergence; type: in vivo, Kochia scoparia; conditions: for Plant response rating (0 to 100), Kochia: 0 is no effect, 100 is complete control; for Kochia plant response rating: 31 g ai/ha; for Kochia plant response rating / Plant response rating, Kochia: scale 0 to 100 (0 no effect, 100 complete control)
Outline: as §3

velvetleaf = test: Test C postemergence; type: in vivo, Abutilon theophrasti; conditions: for Plant response rating (0 to 100), Velvetleaf: 0 is no effect, 100 is complete control; for Velvetleaf plant response rating: 31 g ai/ha; for Velvetleaf plant response rating / Plant response rating, Velvetleaf: scale 0 to 100 (0 no effect, 100 complete control)
Outline: as §3

[11] = postemergence, visual rating, 13 to 15 days
[12] = Postemergence, 62 g ai/ha, 13 to 15 days
[13] = 125 g ai/ha, postemergence, visual rating

Structure (SMILES) | Barnyardgrass plant response rating (barnyardgrass [1]) | Pigweed plant response rating (pigweed [2]) | Wheat plant response rating (wheat [3]) | Corn plant response rating (corn [4]) | Plant response rating, Barnyardgrass (barnyardgrass [5]) | Plant response rating, Foxtail, Giant (giant foxtail) | Plant response rating, Pigweed (pigweed [6]) | Plant response rating, Wheat (wheat [7]) | Plant response rating, Corn (corn [8]) | Plant response rating, Rice (rice) | Plant response rating, Sedge, Umbrella (sedge, umbrella) | Plant response rating, Ducksalad (Heteranthera limosa) | Plant response rating (0 to 100), Galium (galium; 16 g ai/ha, postemergence) | Galium plant response rating (galium; [11]) | Plant response rating, Galium (galium; [12]) | Plant response rating (0 to 100), Pigweed (pigweed [9]; 16 g ai/ha, postemergence) | Pigweed plant response rating (pigweed [9]; [11]) | Plant response rating, Pigweed (pigweed [9]; [12]) | Plant response rating (0 to 100), Barnyardgrass (barnyardgrass [10]; 16 g ai/ha, postemergence) | Barnyardgrass plant response rating (barnyardgrass [10]; postemergence, visual rating) | further results
Clc1cnc(Oc2ccccc2-n2cc(I)nn2)nc1 [Compound 222] | 100 | 100 | 70 | 60 | 100 | 90 | 100 | 40 | 50 | 0 | 70 | 50 | 70 | 85 | 85 | 70 | 80 | 85 | 5 | 10 | Plant response rating (0 to 100), Galium (galium; 8 g ai/ha, postemergence): 65; Plant response rating (0 to 100), Pigweed (pigweed [9]; 8 g ai/ha, postemergence): 65; Plant response rating (0 to 100), Barnyardgrass (barnyardgrass [10]; 8 g ai/ha, postemergence): 5; Plant response rating, Barnyardgrass (barnyardgrass [10]; Postemergence, 62 g ai/ha): 15; Plant response rating (0 to 100), Kochia (kochia; 8 g ai/ha, postemergence): 60; Plant response rating (0 to 100), Kochia (kochia; 16 g ai/ha, postemergence): 85; Kochia plant response rating (kochia; [11]): 100; Plant response rating, Kochia (kochia; [12]): 100; Plant response rating (0 to 100), Velvetleaf (velvetleaf; 8 g ai/ha, postemergence): 35; Plant response rating (0 to 100), Velvetleaf (velvetleaf; 16 g ai/ha, postemergence): 40; Velvetleaf plant response rating (velvetleaf; [11]): 35; Plant response rating, Velvetleaf (velvetleaf; [12]): 50
Clc1cnc(Oc2ccccc2-n2cc(Br)nn2)nc1 [Compound 223] | 100 | 100 | 80 | 80 | 100 | 90 | 100 | 70 | 60 | 50 | 85 | 90 | 75 | 80 | 80 | 70 | 70 | 80 | 0 | 0 | Plant response rating, Galium (galium; [13]): 100; Plant response rating, Pigweed (pigweed [9]; [13]): 90; Plant response rating, Barnyardgrass (barnyardgrass [10]; [13]): 5; Plant response rating, Barnyardgrass (barnyardgrass [10]; Postemergence, 62 g ai/ha): 5; Plant response rating (0 to 100), Kochia (kochia; 16 g ai/ha, postemergence): 70; Kochia plant response rating (kochia; [11]): 85; Plant response rating, Kochia (kochia; [13]): 90; Plant response rating, Kochia (kochia; [12]): 80; Plant response rating (0 to 100), Velvetleaf (velvetleaf; 16 g ai/ha, postemergence): 30; Velvetleaf plant response rating (velvetleaf; [11]): 55; Plant response rating, Velvetleaf (velvetleaf; [13]): 90; Plant response rating, Velvetleaf (velvetleaf; [12]): 80
